According to publication PMC12186262 (ACS Chemical Biology, 2025):
Like-named read-outs stand apart in the source and are kept apart here.

What was measured:
[1] = target: wild-type (WT) His-tagged SARS-CoV-2 SgP RBD (Severe acute respiratory syndrome coronavirus 2, UniProt P0DTC2); type: binding; conditions: for Mean fluorescence intensity (MFI): glycans printed at 100 µM, MFI scaled to positive control = 100, WT RBD 20 µg/mL
WT RBD of SARS-CoV-2 SgP [2] = target: T1, WT RBD of SARS-CoV-2 SgP (Severe acute respiratory syndrome coronavirus 2, UniProt P0DTC2); type: binding; conditions: read-out: KD (microarray, sigmoidal fit)
WT RBD of SARS-CoV-2 SgP [3] = target: T1, WT RBD of SARS-CoV-2 SgP; conditions: read-out: KD (solution fluorescence titration); pH 7.4
[4] = microarray, WT RBD, library A1-A19

NCCCO[C@@H]1O[C@@H](C(=O)O)[C@@H](O[C@H]2O[C@H](CO)[C@@H](O[C@@H]3O[C@@H](C(=O)O)[C@@H](O[C@H]4O[C@H](CO)[C@@H](O)[C@H](OS(=O)(=O)O)[C@H]4N)[C@H](O)[C@H]3O)[C@H](OS(=O)(=O)O)[C@H]2N)[C@H](O)[C@H]1O [A9]
Recognition by WT RBD better than the next best molecule (A10) [1, 4]: > 250%

NCCCO[C@@H]1O[C@@H](C(=O)O)[C@@H](O[C@H]2O[C@H](CO)[C@@H](O[C@@H]3O[C@@H](C(=O)O)[C@@H](O[C@H]4O[C@H](CO)[C@@H](O)[C@H](OS(=O)(=O)O)[C@H]4N)[C@H](O)[C@H]3OS(=O)(=O)O)[C@H](OS(=O)(=O)O)[C@H]2N)[C@H](O)[C@H]1OS(=O)(=O)O [A13]
Mean fluorescence intensity (MFI) [1]: lower MFI in comparison to A9

NOCCOCCO[C@@H]1O[C@@H](C(=O)O)[C@@H](OS(=O)(=O)O)[C@H](O)[C@H]1OS(=O)(=O)O [A16]
Binding signal relative to closest neighbors [1, 4]: ~3 fold

CC(=O)N[C@H]1[C@@H](O[C@H]2[C@H](F)[C@@H](OS(=O)(=O)O)[C@H](OCCCN)O[C@@H]2C(=O)O)O[C@H](COS(=O)(=O)O)[C@@H](O)[C@@H]1OS(=O)(=O)O [B20]
Mean fluorescence intensity (MFI) [1]: > 30

NCCCO[C@@H]1O[C@H](C(=O)O)[C@@H](O[C@H]2O[C@H](COS(=O)(=O)O)[C@@H](O)[C@H](OS(=O)(=O)O)[C@H]2NS(=O)(=O)O)[C@H](F)[C@H]1O [B22]
Mean fluorescence intensity (MFI) [1]: > 30

NCCCO[C@@H]1O[C@H](C(=O)O)[C@@H](O[C@H]2O[C@H](COS(=O)(=O)O)[C@@H](O)[C@H](OS(=O)(=O)O)[C@H]2NS(=O)(=O)O)[C@H](F)[C@H]1OS(=O)(=O)O [B23]
Mean fluorescence intensity (MFI) [1]: > 30

NOCCOCCO[C@@H]1O[C@@H](COS(=O)(=O)O)[C@@H](OS(=O)(=O)O)[C@H](O)[C@H]1OS(=O)(=O)O [B30]
MFI relative to nonsulfated monosaccharide B24 and 3-O-sulfated B28 ([1]; microarray, WT RBD): 4 fold

NOCCOCCO[C@@H]1O[C@@H](COS(=O)(=O)O)[C@@H](O[C@@H]2O[C@@H](COS(=O)(=O)O)[C@@H](OS(=O)(=O)O)[C@H](O)[C@H]2OS(=O)(=O)O)[C@H](O)[C@H]1OS(=O)(=O)O [B32]
Kd (WT RBD of SARS-CoV-2 SgP [2]): 243 ± 41 nM

NOCCOCCO[C@@H]1O[C@@H](COS(=O)(=O)O)[C@@H](O[C@@H]2O[C@@H](COS(=O)(=O)O)[C@@H](O[C@@H]3O[C@@H](COS(=O)(=O)O)[C@@H](OS(=O)(=O)O)[C@H](O)[C@H]3OS(=O)(=O)O)[C@H](O)[C@H]2OS(=O)(=O)O)[C@H](O)[C@H]1OS(=O)(=O)O [B33]
Kd (WT RBD of SARS-CoV-2 SgP [2]): 307 ± 38 nM

NOCCOCCO[C@@H]1O[C@@H](COS(=O)(=O)O)[C@@H](O[C@@H]2O[C@@H](COS(=O)(=O)O)[C@@H](O[C@@H]3O[C@@H](COS(=O)(=O)O)[C@@H](O[C@@H]4O[C@@H](COS(=O)(=O)O)[C@@H](OS(=O)(=O)O)[C@H](O)[C@H]4OS(=O)(=O)O)[C@H](O)[C@H]3OS(=O)(=O)O)[C@H](O)[C@H]2OS(=O)(=O)O)[C@H](O)[C@H]1OS(=O)(=O)O [B34]
Kd (WT RBD of SARS-CoV-2 SgP [3]): 61 ± 8 nM
Kd (WT RBD of SARS-CoV-2 SgP [2]): 201 ± 64 nM
